Results reported in US11787762B2, “Tetralin and tetrahydroquinoline compounds as inhibitors of HIF-2alpha” (ARCUS BIOSCIENCES, INC., priority 2020, dated 2023).

Assays:
[1] = molecular target: T1, Histidine tagged HIF-2α protein containing PAS-B domain (240-350) (Homo sapiens, UniProt Q99814); experiment: HIF-2α Scintillation Proximity Assay (SPA) binding assay; conditions: 50 nM HIF-2α protein, 25 nM 3H-tracer
T1 construct: HIF-2α protein containing PAS-B domain (240-350); made in house
Experimental: HIF-2α Scintillation Proximity Assay (SPA) Binding Assay:
Tritium labeled compound N-(3-chlorophenyl)-4-nitro-2,1,3-benzoxadiazol-5-amine was obtained from American Radiolabeled Chemicals Inc. and copper chelate PVT SPA beads were from PerkinElmer (Cat #RPNQ0095). Histidine tagged HIF-2α protein containing PAS-B domain (240-350) was prepared and purified in house.
Compounds solubilized in DMSO were dispensed into a white 384-well polystyrene non-binding flat clear bottom plate (Greiner Bio-One, Cat #781903) using an HP D300 dispenser. Ten microliters of HIS-tagged HIF-2α protein in buffer (25 mM Tris-HCl, pH 7.4, 150 mM NaCl, 0.15% BSA and 0.001% Tween 20) was added to the compound wells and allowed to incubate for 1 hour at room temperature. Ten microliters of SPA bead mix were added to the wells and incubated for an additional 45 minutes, followed by 10 ul of ^3H-tracer solution. Final assay conditions comprised 50 nM HIF-2α protein, 25 nM radiolabeled tracer and 3 ug beads per well with compounds in 2% DMSO. The plate was read using a MicroBeta Microplate Counter (PerkinElmer) for luminescence detection. The IC50 values of the test compounds were determined from compound dose response curves fitted using a standard four parameter fit equation and are reported in Table 1, Table 2, and Table 3.

[2] = molecular target: T2, HIF-2α (Homo sapiens, UniProt Q99814); experiment: HIF-2α luciferase reporter assay in HIF-Luc-786-O cells; type: cell-based
T2 construct: host or cells: 786-O cells stably transduced with Cignal Lenti HIF Luc Reporter (only the reporter was introduced, not HIF-2α)
How it was run: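 Luminescence (ONE-Glo) read after 20 h compound incubation, top concentration 50 uM, 1% DMSO, 20,000 HIF-Luc-786-O cells per well. Activity scaled between DMSO maximum and no-cell baseline; four-parameter dose-response fits yielded IC50.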

T1 sequence (Q99814 240-350): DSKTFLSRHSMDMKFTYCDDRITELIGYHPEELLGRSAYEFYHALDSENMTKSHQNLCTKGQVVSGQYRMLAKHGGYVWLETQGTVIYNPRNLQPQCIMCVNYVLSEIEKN
T2 sequence (Q99814 whole entry): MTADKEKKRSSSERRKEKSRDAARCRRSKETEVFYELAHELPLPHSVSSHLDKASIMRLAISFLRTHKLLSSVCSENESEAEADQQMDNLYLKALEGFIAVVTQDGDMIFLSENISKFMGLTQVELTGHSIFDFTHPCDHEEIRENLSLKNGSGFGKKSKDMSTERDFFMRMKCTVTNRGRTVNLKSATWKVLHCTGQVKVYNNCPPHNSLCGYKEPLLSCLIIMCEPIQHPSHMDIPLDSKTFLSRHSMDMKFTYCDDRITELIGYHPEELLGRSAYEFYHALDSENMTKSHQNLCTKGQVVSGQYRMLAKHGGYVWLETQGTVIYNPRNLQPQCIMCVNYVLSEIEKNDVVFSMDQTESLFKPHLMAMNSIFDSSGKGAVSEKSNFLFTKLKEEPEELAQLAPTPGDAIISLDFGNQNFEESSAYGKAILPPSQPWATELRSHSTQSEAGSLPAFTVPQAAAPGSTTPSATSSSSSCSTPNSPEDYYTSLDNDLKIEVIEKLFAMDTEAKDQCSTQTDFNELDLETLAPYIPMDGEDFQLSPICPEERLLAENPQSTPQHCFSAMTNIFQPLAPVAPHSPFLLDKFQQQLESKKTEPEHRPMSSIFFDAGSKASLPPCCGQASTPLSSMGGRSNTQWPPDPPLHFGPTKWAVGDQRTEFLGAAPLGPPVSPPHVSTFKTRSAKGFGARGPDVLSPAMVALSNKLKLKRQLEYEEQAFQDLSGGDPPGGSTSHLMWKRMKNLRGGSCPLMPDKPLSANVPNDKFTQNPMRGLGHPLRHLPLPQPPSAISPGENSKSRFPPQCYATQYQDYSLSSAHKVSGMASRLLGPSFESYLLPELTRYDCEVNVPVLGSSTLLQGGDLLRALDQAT

| Structure (SMILES) | IC50 ([1]; Table 1) [nM] | IC50 ([2]; Table 1, 20 hours incubation) [nM] | other results |
| --- | --- | --- | --- |
| Cn1ncc(C#N)c1-c1ccc([C@H]2CC[C@H](F)c3cc(F)cc(C#N)c32)c2c1[C@H](O)C(F)(F)C2 [Example 145, 5-[(3S)-7-[(1R,4S)-8-cyano-4,6-difluoro-1,2,3,4-tetrahydronaphthalen-1-yl]-2,2-difluoro-3-hydroxy-1,3-dihydroinden-4-yl]-1-methylpyrazole-4-carbonitrile] | – | – | IC50 ([1]; Table 3): < 100 nM; IC50 ([2]; Table 3, 20 hours incubation): < 100 nM |
| Cc1ncsc1-c1ccc([C@H]2CC[C@H](F)c3cc(F)cc(C#N)c32)c2c1[C@H](O)C(F)(F)C2 [Example 167, (5S,8R)-8-[(1S)-2,2-difluoro-1-hydroxy-7-(4-methyl-1,3-thiazol-5-yl)-2,3-dihydro-1H-inden-4-yl]-3,5-difluoro-5,6,7,8-tetrahydronaphthalene-1-carbonitrile] | – | – | IC50 ([1]; Table 3): < 100 nM; IC50 ([2]; Table 3, 20 hours incubation): < 100 nM |
| O=S(=O)(c1ccc(N2CCC(CO)c3cc(F)cc(F)c32)c2c1[C@H](O)[C@H](F)C2)C(F)(F)F (some centres unmarked) [Example 27] | 100 to 1000 | 100 to 1000 | – |
| N#Cc1c(S(=O)(=O)C(F)(F)F)ccc(N2CCCc3cc(F)cc(Cl)c32)c1Cl [Example 12, 2-chloro-3-(8-chloro-6-fluoro-1,2,3,4-tetrahydroquinolin-1-yl)-6-trifluoromethanesulfonylbenzonitrile] | 100 to 1000 | > 1000 | – |
| N#Cc1cc(F)cc2c1N(c1ccc(C(F)(F)F)c(F)c1CCO)CCC2 [Example 44] | > 1000 | > 1000 | – |
| CS(=O)(=O)c1ccc([C@H]2CCCc3cccc(C#N)c32)c2c1[C@H](O)[C@H](F)C2 [Example 97] | 100 to 1000 | 100 to 1000 | – |
| N#Cc1cc(N2CCCc3cc(F)cc(C#N)c32)cnc1C(F)(F)F [Example 14, 1-[5-cyano-6-(trifluoromethyl)pyridin-3-yl]-6-fluoro-1,2,3,4-tetrahydroquinoline-8-carbonitrile] | 100 to 1000 | 100 to 1000 | – |
| N#Cc1cc(F)cc2c1[C@@H](c1ccc(Cl)c3c1CC(F)(F)[C@H]3O)CCC2 [Example 117] | 100 to 1000 | 100 to 1000 | – |
| O=[N+]([O-])c1cc(C(F)(F)F)ccc1N1CCCc2cc(F)cc(F)c21 [Example 24, 6,8-difluoro-1-[2-nitro-4-(trifluoromethyl)phenyl]-1,2,3,4-tetrahydroquinoline] | > 1000 | > 1000 | – |
| O=S(=O)(c1ccc(N2CCCc3cc(F)cc(F)c32)c2c1C(F)CC2)C(F)(F)F (centres unmarked) [Example 49] | 100 to 1000 | > 1000 | – |
| N#Cc1cc(F)cc2c1N(c1ccc(C(F)(F)F)c(F)c1C#N)C[C@H](F)[C@@H]2F [Example 130, (3S,4R)-1-[2-Cyano-3-fluoro-4-(trifluoromethyl)phenyl]-3,4,6-trifluoro-1,2,3,4-tetrahydroquinoline-8-carbonitrile] | – | – | IC50 ([1]; Table 2): < 100 nM; IC50 ([2]; Table 2, 20 hours incubation): < 100 nM |
| O=S(=O)(c1ccc([C@@H]2CCOc3cc(F)cc(F)c32)c2c1[C@H](O)[C@H](F)C2)C(F)(F)F [Example 104] | > 1000 | > 1000 | – |
| Cn1cncc1-c1ccc([C@H]2CC[C@H](F)c3cc(F)cc(C#N)c32)c2c1[C@H](O)C(F)(F)C2 [Example 240, (5S,8R)-8-[(1S)-2,2-difluoro-1-hydroxy-7-(3-methylimidazol-4-yl)-1,3-dihydroinden-4-yl]-3,5-difluoro-5,6,7,8-tetrahydronaphthalene-1-carbonitrile] | – | – | IC50 ([1]; Table 3): < 100 nM; IC50 ([2]; Table 3, 20 hours incubation): < 100 nM |
| N#Cc1cc(F)cc2c1N(c1ccc(C(F)(F)F)c(C#N)c1Cl)CCC2 [Example 28] | 100 to 1000 | 100 to 1000 | – |
| CS(=O)(=O)c1ccc(N2CCCc3cc(F)cc(F)c32)c(C(F)F)c1C#N [Example 53] | > 1000 | > 1000 | – |
| O=[N+]([O-])c1cc(S(=O)(=O)C(F)(F)F)ccc1N1CCOc2cc(F)cc(F)c21 [Example 73] | > 1000 | > 1000 | – |
| O=S(=O)(c1ccc(N2C[C@H](O)Cc3cc(F)cc(F)c32)c2c1[C@H](O)[C@H](F)C2)C(F)(F)F [Example 50] | > 1000 | > 1000 | – |
| O=S(=O)(c1ccc([C@@H]2c3c(F)cc(F)cc3CC[C@@H]2O)c2c1[C@H](O)[C@H](F)C2)C(F)(F)F [Example 101] | 100 to 1000 | > 1000 | – |
| CC1CCN(c2ccc(S(=O)(=O)C(F)(F)F)c3c2C[C@@H](F)[C@H]3O)c2c(F)cc(F)cc21 (some centres unmarked) [Example 30] | 100 to 1000 | 100 to 1000 | – |

| Structure (SMILES) | IC50 ([1]; Table 1) [nM] | IC50 ([2]; Table 1, 20 hours incubation) [nM] | other results |
| --- | --- | --- | --- |
| N#Cc1c(S(=O)(=O)C(F)(F)F)ccc(N2CCCc3cc(F)cc(F)c32)c1Cl [Example 13, 2-chloro-3-(6,8-difluoro-1,2,3,4-tetrahydroquinolin-1-yl)-6-trifluoromethanesulfonylbenzonitrile] | 100 to 1000 | > 1000 | – |
| O=[N+]([O-])c1c(N2CCCc3cc(F)cc(F)c32)ccc2nonc12 [Example 34] | > 1000 | 100 to 1000 | – |
| Cn1nccc1-c1ccc([C@H]2CC[C@H](F)c3cc(F)cc(C#N)c32)c2c1[C@H](O)C(F)(F)C2 [Example 143, (5S,8R)-8-[(1S)-2,2-difluoro-1-hydroxy-7-(2-methylpyrazol-3-yl)-1,3-dihydroinden-4-yl]-3,5-difluoro-5,6,7,8-tetrahydronaphthalene-1-carbonitrile] | – | – | IC50 ([1]; Table 2): < 100 nM; IC50 ([2]; Table 2, 20 hours incubation): < 100 nM |
| O=S(=O)(c1ccc(N2CCCc3cc(F)cc(F)c32)c2c1[C@H](O)[C@@H](F)C2)C(F)(F)F [Example 54] | > 1000 | > 1000 | – |
| O=S(=O)(c1ccc(N2CCCc3cc(F)cc(F)c32)c(Cl)c1CO)C(F)(F)F [Example 83] | > 1000 | > 1000 | – |
| N#Cc1cc(F)cc2c1[C@@H](c1ccc(S(=O)(=O)C(F)(F)F)c3c1CC[C@H]3O)CCC2 [Example 90] | < 100 | < 100 | – |
| N#Cc1cc(F)cc2c1N(c1cnc(C(F)(F)F)c(F)c1Cl)CCC2(F)F [Example 127, 1-[4-Chloro-5-fluoro-6-(trifluoromethyl)pyridin-3-yl]-4,4,6-trifluoro-2,3-dihydroquinoline-8-carbonitrile] | – | – | IC50 ([1]; Table 2): < 100 nM; IC50 ([2]; Table 2, 20 hours incubation): < 100 nM |
| CS(=O)(=O)c1ccc(N2CCC(F)c3cc(F)cc(C#N)c32)c(C#N)c1Cl (centres unmarked) [Example 122, 1-(3-chloro-2-cyano-4-methylsulfonylphenyl)-4,6-difluoro-3,4-dihydro-2H-quinoline-8-carbonitrile] | – | – | IC50 ([1]; Table 2): < 100 nM; IC50 ([2]; Table 2, 20 hours incubation): < 100 nM |
| N#Cc1cc(F)cc2c1[C@H](c1ccc(C(F)(F)F)c3c1OC(F)(F)[C@H]3O)CCC2 [Example 108] | > 1000 | > 1000 | – |
| N#Cc1c(Cl)ccc(N2CCCc3cc(F)cc(F)c32)c1C(F)F [Example 71] | > 1000 | > 1000 | – |
| COC(=O)c1c(S(=O)(=O)C(F)(F)F)ccc(N2CCCc3cc(F)cc(F)c32)c1Cl [Example 85] | > 1000 | > 1000 | – |
| CS(=O)(=O)c1ccc([C@H]2CCCc3cc(F)cc(F)c32)c2c1[C@H](O)[C@H](F)C2 [Example 4, (1S,2R)-4-[(1R)-6,8-difluoro-1,2,3,4-tetrahydronaphthalen-1-yl]-2-fluoro-7-methanesulfonyl-2,3-dihydro-1H-inden-1-ol] | < 100 | 100 to 1000 | – |
| CS(=O)(=O)c1ccc([C@H]2CCC(F)(F)c3cc(F)cc(C#N)c32)c2c1[C@H](O)[C@H](F)C2 [Example 135, (8R)-3,5,5-Trifluoro-8-[(1S,2R)-2-fluoro-1-hydroxy-7-methylsulfonyl-2,3-dihydro-1H-inden-4-yl]-7,8-dihydro-6H-naphthalene-1-carbonitrile] | – | – | IC50 ([1]; Table 2): < 100 nM; IC50 ([2]; Table 2, 20 hours incubation): < 100 nM |
| O=S(=O)(c1ccc(C2CCCc3cc(F)cc(F)c32)c2c1[C@H](O)[C@H](F)C2)C(F)(F)F (some centres unmarked) [Example 89] | < 100 | < 100 | – |
| CC(O)(c1ccc(N2CCCc3cc(F)cc(C#N)c32)c([N+](=O)[O-])c1)C(F)(F)F (centres unmarked) [Example 59] | > 1000 | > 1000 | – |
| Cn1ncnc1-c1ccc([C@H]2CC[C@H](F)c3cc(F)cc(C#N)c32)c2c1[C@H](O)C(F)(F)C2 [Example 174, (5S,8R)-8-[(1S)-2,2-difluoro-1-hydroxy-7-(2-methyl-1,2,4-triazol-3-yl)-1,3-dihydroinden-4-yl]-3,5-difluoro-5,6,7,8-tetrahydronaphthalene-1-carbonitrile] | – | – | IC50 ([1]; Table 3): < 100 nM; IC50 ([2]; Table 3, 20 hours incubation): < 100 nM |
| O=[N+]([O-])c1cc(S(=O)(=O)C(F)(F)F)ccc1N1CCCc2cc(Cl)cc(F)c21 [Example 58] | > 1000 | > 1000 | – |
| O=S(=O)(c1ccc(N2CCCc3cc(F)cc(F)c32)c2cn[nH]c12)C(F)(F)F [Example 81] | > 1000 | > 1000 | – |
